Where a SMILES comes first, the peptide text is derived from it. [ ]: non-standard residue; d: D form. The star is where a group is joined. X28 = O=C(/C=C\c1cccc(OS(=O)(=O)O)c1)*; NMeF = CN[C@@H](Cc1ccccc1)C(=O)O; X30 = O=C(CCc1ccc(C(F)(F)F)cc1)*; X31 = COc1ccc(/C=C\C(=O)*)cc1OC; X33 = O=C(/C=C/c1ccc(Cl)cc1)*; X29 = O=C(/C=C\c1cccc(O)c1)*; X32 = Cc1ccc(/C=C\C(=O)*)cc1; X27 = O=C(Cc1ccc(O)cc1)*; Boc = CC(C)(C)OC(=O)*

For assay [1], the species on record is Cavia porcellus. Nature of the assay: Stimulation of amylase release in guinea pig pancreas. It is filed as functional.
For assay [2], the species on record is Cavia porcellus. In words: Hydrolysis of phosphoinositide (PI) relative to maximal response elicited by CCK-8 in guinea pig pancreas. It is filed as functional.
Assay [3] addresses T1, Cholecystokinin receptor type A (Cavia porcellus, UniProt Q63931).
T1 sequence (Q63931 whole entry): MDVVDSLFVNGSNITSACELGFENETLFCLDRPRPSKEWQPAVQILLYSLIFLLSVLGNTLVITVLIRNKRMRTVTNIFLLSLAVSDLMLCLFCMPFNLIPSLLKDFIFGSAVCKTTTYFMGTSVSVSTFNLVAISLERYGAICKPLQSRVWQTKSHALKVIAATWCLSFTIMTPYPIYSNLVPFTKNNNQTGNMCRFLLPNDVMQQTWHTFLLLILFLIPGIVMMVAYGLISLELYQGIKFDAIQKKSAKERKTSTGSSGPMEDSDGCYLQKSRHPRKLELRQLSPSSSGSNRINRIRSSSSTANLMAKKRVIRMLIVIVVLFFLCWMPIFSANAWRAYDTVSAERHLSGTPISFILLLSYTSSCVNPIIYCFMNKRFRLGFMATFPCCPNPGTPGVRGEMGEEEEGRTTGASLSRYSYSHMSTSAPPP
Nature of the assay: Inhibition of specific binding of [125I]BH-CCK-8 in guinea pig pancreas.

As a reminder, the EC50 is the concentration that produces a half-maximal response. Read a low EC50 as an effect from little substance. The term IC50 denotes the concentration needed to halve the response being measured. A low value points to inhibition by little substance. Turning to `CC(C)(C)OC(=O)N[C@@H](Cc1c[nH]c2ccccc12)C(=O)N[C@@H](CCCCNC(=O)Cc1ccc(O)cc1)C(=O)N[C@@H](CC(=O)O)C(=O)N[C@@H](Cc1ccccc1)C(N)=O` (Boc-WK(X27)DF-NH2), in the assay filed under Cavia porcellus [1], the concentration giving a half-maximal response (EC50) is 30000 nM. The Max in the assay listed under Cavia porcellus [2] is 88%. In assay [3], the IC50 amounted to 1100 nM.
Take `CC(C)(C)OC(=O)N[C@@H](Cc1c[nH]c2ccccc12)C(=O)N[C@@H](CCCCNC(=O)/C=C\c1cccc(OS(=O)(=O)O)c1)C(=O)N[C@@H](CC(=O)O)C(=O)N[C@@H](Cc1ccccc1)C(N)=O` (Boc-WK(X28)DF-NH2): in the assay filed under Cavia porcellus [1], the EC50 came to 25 nM. Moreover, in the assay listed under Cavia porcellus [2], the Max worked out at 70%. Also, in assay [3], the IC50 was determined as 39 nM.
In the case of `CC(C)(C)OC(=O)N[C@@H](Cc1c[nH]c2ccccc12)C(=O)N[C@@H](CCCCNC(=O)/C=C\c1cccc(O)c1)C(=O)N[C@@H](CC(=O)O)C(=O)N[C@@H](Cc1ccccc1)C(N)=O` (Boc-WK(X29)DF-NH2), the EC50 in the assay filed under Cavia porcellus [1] turned out to be 59 nM. In the assay listed under Cavia porcellus [2], this compound displayed a Max of 54%. Besides, the IC50 in assay [3] came out at 22 nM.
Turning to `CC(C)(C)OC(=O)N[C@@H](Cc1c[nH]c2ccccc12)C(=O)N[C@@H](CCCCNC(=O)CCc1ccc(C(F)(F)F)cc1)C(=O)N[C@@H](CC(=O)O)C(=O)N[C@@H](Cc1ccccc1)C(N)=O` (Boc-WK(X30)DF-NH2), in the assay listed under Cavia porcellus [1], the midpoint of the response, the EC50, lay at 30000 nM. Moreover, the Max in the assay listed under Cavia porcellus [2] is 77%. In assay [3], this compound had a 50% inhibitory concentration (IC50) of 390 nM.
`COc1ccc(/C=C\C(=O)NCCCC[C@H](NC(=O)[C@H](Cc2c[nH]c3ccccc23)NC(=O)OC(C)(C)C)C(=O)N[C@@H](CC(=O)O)C(=O)N[C@@H](Cc2ccccc2)C(N)=O)cc1OC` (Boc-WK(X31)DF-NH2) returned an EC50 in the assay filed under Cavia porcellus [1] of 17 nM. For the same compound, the Max in the assay listed under Cavia porcellus [2] is 61%. In addition, the IC50 in assay [3] worked out at 40 nM.
Take `Cc1ccc(/C=C\C(=O)NCCCC[C@H](NC(=O)[C@H](Cc2c[nH]c3ccccc23)NC(=O)OC(C)(C)C)C(=O)N[C@@H](CC(=O)O)C(=O)N[C@@H](Cc2ccccc2)C(N)=O)cc1` (Boc-WK(X32)DF-NH2): a half-maximal effect in the assay listed under Cavia porcellus [1] (EC50) was put at 52 nM. This compound also yielded a Max in the assay listed under Cavia porcellus [2] of 71%. In assay [3], this compound yielded an IC50 of 71 nM.
In turn, `CN(C(=O)[C@H](CC(=O)O)NC(=O)[C@H](CCCCNC(=O)/C=C/c1ccc(Cl)cc1)NC(=O)[C@H](Cc1c[nH]c2ccccc12)NC(=O)OC(C)(C)C)[C@@H](Cc1ccccc1)C(N)=O` (Boc-WK(X33)D[NMeF]-NH2) yielded an EC50 in the assay filed under Cavia porcellus [1] of 8.6 nM. This compound registered a Max in the assay listed under Cavia porcellus [2] of 68%. Besides, the IC50 in assay [3] was determined as 15 nM.

(Values after ChEMBL document CHEMBL1126058, “Development of potent and selective CCK-A receptor agonists from Boc-CCK-4: tetrapeptides containing Lys(N epsilon)-amide residues” (J Med Chem, 1992).)
